Measured values from ChEMBL document CHEMBL4602653, “Neuraminidase-triggered activation of prodrug-type substrate of 4-nitroaniline” (Bioorg Med Chem Lett, 2020).

Experiments:
Assay type in all cases: ADME
Details in all cases: isolated protein, 6000 µM
[1] = Drug metabolism assessed as Clostridium perfringens neuraminidase-mediated formation of free N-acetyl-neuraminic acid at 6 mM measured after 75 hrs by 1H-NMR analysis
[2] = Drug metabolism assessed as Clostridium perfringens neuraminidase-mediated drug decomposition resulting in formation of beta-H3-(equitorial)-N-acetyl-neuraminic acid at 2.21 ppm at 6 mM measured over 10 hrs by 1H-NMR analysis
[3] = Drug metabolism assessed as Clostridium perfringens neuraminidase-mediated formation of para-quinone methide by measuring 4-hydroxy benzyl alcohol formation at 6.90 to 7.29 ppm at 6 mM measured after 10 hrs by 1H-NMR analysis
[4] = Drug metabolism assessed as Clostridium perfringens neuraminidase-mediated drug decomposition resulting in formation of alpha-H3-(axial)-N-acetyl-neuraminic acid at 1.62 ppm at 6 mM measured over 10 hrs by 1H-NMR analysis
[5] = Drug metabolism assessed as Clostridium perfringens neuraminidase-mediated drug decomposition by measuring ratio of alpha-H3-(axial)-N-acetyl-neuraminic acid to beta-H3-(axial)-N-acetyl-neuraminic acid at 6 mM measured over 10 hrs by 1H-NMR analysis
[6] = Drug metabolism assessed as Clostridium perfringens neuraminidase-mediated drug decomposition by measuring ratio of alpha-H3-(equitorial)-N-acetyl-neuraminic acid to beta-H3-(equitorial)-N-acetyl-neuraminic acid at 6 mM measured over 10 hrs by 1H-NMR analysis
[7] = Drug metabolism assessed as Clostridium perfringens neuraminidase-mediated drug decomposition resulting in formation of alpha-H3-(axial)-N-acetyl-neuraminic acid at 1.83 ppm at 6 mM measured over 10 hrs by 1H-NMR analysis
[8] = Drug metabolism assessed as Clostridium perfringens neuraminidase-mediated drug decomposition resulting in formation of alpha-H3-(equitorial)-N-acetyl-neuraminic acid at 2.74 ppm at 6 mM measured over 10 hrs by 1H-NMR analysis

SMILES: CC(=O)N[C@H]1[C@H]([C@H](O)[C@H](O)CO)OC(Oc2ccc(COC(=O)Nc3ccc([N+](=O)[O-])cc3)cc2)(C(=O)O)C[C@@H]1O (stereo partly drawn)
- Drug metabolism [1]: Metabolite_Detected
- Drug metabolism [2]: Metabolite_Detected
- Drug metabolism [3]: Metabolite_Detected
- Drug metabolism [4]: Metabolite_Detected
- Ratio [5]: 92.4
- Ratio [6]: 7.6
- Drug metabolism [7]: Metabolite_Detected
- Drug metabolism [8]: Metabolite_Detected
